# Where “and” joins values, the source holds several entries; their conditions need not be identical. Identical values can stand only once.
# Assays:
# [1] = biological target: T1, hNav1.5 (Homo sapiens, UniProt Q14524); assay: Slow inactivation (10 s conditioning prepulse); details: slow inactivation fit (Eq. 5); for V50_1: N = 5
# Description: Voltage dependence of activation was calculated in two steps: First, changes in driving force owing to the different test potentials were considered by calculating the conductance g according to g = I/V−ENa (2) Thereafter, normalized data were fitted with a Boltzmann equation of the form: g/gmax= 1/1+e^(V50 − V/k) (3) Voltage dependence of fast inactivation were fit using a Boltzmann equation of the form: I/Imax= 1/1+ e^(V − V50/k) (4) In case of slow inactivation Eq. 4 was extended by a second term and the additional parameter (S) which considers the steady-state level of the incomplete inactivation. I/Imax=(1−S)(a1/1+ e^(V− V501/k1)+ a2/1+ e^(V− V502/k2))+ S (5) Abbreviations used for voltage-dependent parameters: V and V50i are the actual membrane potentials and the potentials at which half maximal current (I)/conductance (g) occur, respectively. ENa indicates the reversal potential which was experimentally determined for each cell. The slope factors are given by ki and the relative amount of the individual terms are represented by ai. Constraint throughout: ∑i=1nai=1 .
# In a next set of experiments, we directly investigated for a possible interaction with the slow inactivated state. To this end, similar experiments as shown in Figure 4 were conducted with the following deviations: the duration of the conditioning prepulse was set to 10 s, and a recovery period (100 ms) at −160 mV was inserted immediately before the test pulse to eliminate or minimize the contribution from fast-inactivation. […] Another hallmark for an interaction with the slow inactivated state is an ongoing increase in inhibition in the potential range (V50_2) where slow inactivation is expected to occur. In order to evaluate this we renormalized the data in the presence of atomoxetine with their respective control (Figure 7B).
# FIGURE 7 Interaction with the slow-inactivated state (A) Infrequent (interval: 30 s) channel activations by step depolarisations to −20 mV were elicited after long lasting (10 s) conditioning prepulses to different potentials (inset). A short (100 ms) recovery period at −160 mV was inserted immediately before the test pulse. Data of normalized peak currents are plotted vs. the prepulse potential. Solid lines are fits according to Eq. 5 for control (open squares) and atomoxetine (3 µM) (filled symbols). […] (B) Plot of renormalized data was obtained by dividing the drug values by control values.
# [2] = biological target: T1, hNav1.5; assay: Use-dependent interaction (high frequency stimulation trains); details: for relative current amplitude of the 50th pulse related to the first pulse: 1 ms test pulse; for remaining current amplitude (use-dependence, pulse duration series): 10 Hz (Figure 9B)
# Description: To investigate whether atomoxetine also interacts with the open channel, we first tested for a possible use-dependency. All these experiments were carried out at a holding potential of −140 mV and a test pulse to −20 mV with its duration set to 1 ms. This short activation time was chosen to minimize the time the channels spent in the inactivated state. After establishing stable baseline values using infrequent activations every 5 s (0.2 Hz) a train of high frequency stimulation (1, 3 10 Hz) was started. For evaluation, the peak current amplitude of each pulse was divided by the amplitude of the first response of the high frequency stimulation train. […] For quantification, the remaining current amplitudes of the 50th pulse were related to the first pulse. […] In order to analyse further if atomoxetine prefers an interaction with the open or fast inactivated state, we increased the test pulse duration up to a factor of 20.
# FIGURE 9 Analysis for use-dependence at a pulsing frequency of 10 Hz (A) After establishing stable control responses (activations every 5 s), atomoxetine was preincubated for 20 s before test pulses (1 ms) were applied at a frequency of 10 Hz. […] The amplitudes which were obtained from the high frequency stimulation are related to the first pulse of each train.
# [3] = biological target: T1, hNav1.5; assay: Voltage dependence of activation, whole-cell patch clamp; format: cell-based; design: expressed in transfected cells; host or cells: tsA201 (HEK-293 derivative)
# [4] = biological target: T1, hNav1.5; assay: Voltage dependence of fast inactivation (500 ms prepulse); format: cell-based; design: expressed in transfected cells; host or cells: tsA201 (HEK-293 derivative); details: for net drug-induced shift of half maximal fast inactivation (signed): N = 5
# Description: Constraint throughout: ∑i=1nai=1 .
# For establishing inactivation curves, the membrane potential was stepped to different prepulse potentials (from −140 to −45 mV; increment 5 mV) for 500 ms before channel activations were carried out by depolarizations to −20 mV. For estimation of inactivation parameters, the normalized peak currents were plotted vs. the prepulse potentials. Inactivation curves, characterized by inactivation midpoints and the curve slope were obtained by data fitting using Eq. 4. […] After a second control, atomoxetine was applied at a concentration of 3 and 10 µM (Figure 4A) For final evaluation of drug effects, first the endogenous shift was estimated for each cell individually by the difference between the two controls. […] We used a cell-specific endogenous shift instead of a global shift, as the endogenous shift is highly variable between individual cells.
# FIGURE 4 Voltage dependence of fast inactivation (A) Data of a representative measurement series of normalized peak currents in the absence and presence of atomoxetine are shown. Solid lines represent fits according to Eq. 4.
# [5] = biological target: T1, hNav1.5; assay: Recovery from inactivation (double pulse protocols); format: cell-based; design: expressed in transfected cells; host or cells: tsA201 (HEK-293 derivative)
# Text: Current amplitudes were normalized to the maximum peak amplitude of INa in the absence and presence of atomoxetine. Recovery time constants were estimated from double or triple exponential fits according to: I/Imax = 1− a1*e^(−t/τ1) −a2*e^(−t/τ2)− a3*e^(−t/τ3) (10)
# Recovery from inactivation was estimated with double pulse protocols using two different durations for the inactivating pulse: 500 ms and 10 s. The test pulse was applied after a variable time spent at the recovery potential of −140 mV (inset Figure 8). Using the short inactivation time of 500 ms, recovery occurred with two time constants. In the absence of atomoxetine about 90% of the channels recovered with a fast time constant (τ 1 = 2.2 ± 0.2 ms), representing recovering from fast inactivation. The remainder recovered with a slower time constant (τ 2 = 37.7 ± 15.6 ms), probably representing recovery from slow inactivation. In the presence of atomoxetine the time constant of the fast component was hardly extended whereas those of the slow time constant was prolongated with little or no change in the relative amount of the two components (Figure 8A, Table 2). […] Using an inactivation time of 10 s, recovery has to be fitted with triple exponential functions, separating the recovery process in a fast, intermediate and a slow component (Figure 8B). In the presence of atomoxetine a profound increase in all time constants resulted. Moreover, the component of the fast time constant decreased and that of the slow component increased in a concentration dependent manner while the amount of the intermediate component stayed almost constant (Table 3).
# FIGURE 8 Recovery from inactivation (A) The relative amount of available channels after increasing duration of recovery at −140 mV is illustrated. Inactivation was performed at −20 mV for 500 ms. The pulse protocol is illustrated by the inset. Interval between individual measurements was 10 s and atomoxetine was applied at 3 and 10 µM. Solid lines represent fits with two exponential functions according to Eq. 10. (B) Otherwise identical protocol as in (A) but with the inactivation time set to 10 s. For data fitting, three exponentials were required. For fit parameters see Table 2, N = 5.
# [6] = biological target: T1, hNav1.5; assay: Interaction with the inactivated state: steady-state concentration-response relationship
# Description: Concentration-inhibition curves for the estimation of Kr (IC50 at −140 mV; Figure 2) or Kapp (Figure 6) were fitted to the Hill equation ID/IC= 1/1+([D]/IC50)^n (1) ID and IC are the current amplitudes in the presence and absence of the drug (D). [D] is the concentration of the drug. IC50 represents the concentration of the blocker that causes 50% inhibition and n is the Hill coefficient.
# The affinity to the inactivated state (Ki) was calculated according to ([Bean et al., 1983]) as: 1/Kapp= h/Kr+ (1−h)/Ki (6) Kapp is the apparent affinity estimated at a selected membrane potential at which the amount of non-inactivated channels is given by h (estimated from the corresponding inactivation curve).
# Activations were repeated several times at each concentration to achieve steady-state condition (Figure 6A). The holding potential was chosen individually for each cell to be around half maximal inactivation according to a preceding estimation of availability. Before the test pulse a short recovery (100 ms at −160 mV) was carried out (inset to Figure 6A). From the concentration relationship apparent half maximal effective concentrations (Kapp) were calculated using Eq. 1 (Figure 6B). The affinity for the inactivated channel was then calculated according to Eq. 6 which considers the varying amount of inactivated channels in individual experiments.
# Activations were carried out every 30 s using a holding potential at which the channels were partly inactivated (relative amount of available channels in this experiment: h = 0.81). Immediately before the activations a short recovery (100 m s) at −160 mV was intercalated (inset). Activations were repeated at each condition until a near stable current amplitude was achieved. (B) The apparent IC50 (IC50app) was calculated from the concentration-dependent decline of the current amplitudes. The affinity to the inactivated state was calculated considering the current amount of available channels according to Eq. 6.
# [7] = biological target: T1, hNav1.5; assay: Block development, interaction with the inactivated state: kinetic parameters (double-pulse protocol); details: for remaining current at the longest inactivation time: prepulse −20 mV up to 32 s
# Description: The time constant (τ) of block development for the different concentrations of atomoxetine was estimated by single exponential fits of the form: I/Imax = S+ a1*e^(−t/τ1) (7) t denotes the time, a is the fraction of channels which is blocked, and S represents the residual current.
# Association (kon in µM^−1s^−1) and dissociation rates (koff in s^−1) were estimated from the slope and the y-intercept of a linear regression where the inverse of the fast time constants (1/τ) was plotted vs. the drug concentration [D] […] 1/τ= koff+kon*[D] (8) The affinity for the inactivated state (Ki) was calculated according to: Ki= koff/kon (9)
# Instead of this, we employed another double-pulse protocol in order to determine the time dependence of the interaction of atomoxetine with the inactivated state. The experimental scheme consisted of a conditioning prepulse to −20 mV for a variable duration (range: 0.002–32 s), a short recovery for 100 ms at −140 mV, followed by the test pulse to −20 mV (inset to Figure 5A). […] For estimation of rate constants the inverse of the time constants (1/τ) were plotted vs. the concentration of atomoxetine (Figure 5C).
# The pulse protocol (inset) was applied in intervals of 20 s. The peak currents of the test pulse were normalized to the peak amplitude of the prepulse and plotted vs. its duration. Solid lines represent fits of single exponential functions to data obtained for control (open squares) or different concentrations of atomoxetine (B) Data normalized with respect to control (C) The inverse of the time constants of individual cells were plotted vs. the concentration of atomoxetine. […] N = 5.
# [8] = biological target: T1, hNav1.5; assay: Tonic block of hNav1.5 channels (resting state, holding potential −140 mV), whole-cell patch clamp in tsA201 cells; details: N = 5
# Description: The tsA201 cell line is a derivative of the human embryonic kidney cell line HEK-293 (ATCC#CRL1537, Merck KGaA, Darmstadt, Germany). tsA201 cells were cultured at 37°C in a humidified atmosphere at 95% air and 5% CO2 in MEM (minimum essential medium, Gibco, Eggenstein, Germany) supplemented with 50 U/ml penicillin, 50 μg/ml streptomycin (Gibco), 2 mM L-glutamine (Boehringer, Mannheim, Germany), and 10% fetal calf serum (Gibco). The cells were grown on polyornithine-coated culture dishes to 40% confluency and transfected using the TransFectin LipidReagent kit (Bio-Rad, München, Germany).
# Briefly, tsA201 cells were used for experiments 24–48 h after transfection. Membrane currents were recorded in the whole-cell recording mode using an EPC-9 amplifier and Patchmaster software (v2x73; HEKA, Lambrecht, Germany ([Hamill et al., 1981])). Before recording, cells were rinsed twice with an extracellular standard solution containing (in mM): 140 NaCl, 5 KCl, 1.5 CaCl2, 10 glucose and 12 HEPES; adjusted to a final pH of 7.3. Patch pipettes were drawn from borosilicate glass with tip resistances of about 2 MΩ when filled with (in mM): 125 CsF, 10 NaF, 1 MgCl2, 10 EGTA, 10 HEPES; adjusted to a final pH of 7.2. To improve sealing, tips were briefly dipped into 2% dimethylsilane dissolved in dichloromethane. Unless otherwise stated, cells were held at a holding potential of −140 mV from which channel activation was elicited by brief depolarizing pulses to −20 mV of 5 ms duration. To minimize voltage errors, the series resistance was compensated up to 80%. Cells with currents larger than 6 nA were excluded from evaluation.
# The medium in the dish (1.5 ml) was continuously exchanged using a "global" bath perfusion with the inflow set to 4.5 ml/min and the outflow removing any excess fluid. Reagents were applied locally to the cells by the L/M-SPS-8 superfusion system (List, Darmstadt, Germany). Switching between the 8 channels of the superfusion system was controlled by magnetic valves. The local inlet (tip of an eight-barrelled pipette) was positioned at a distance of 50–100 μm upstream and the local outlet at about 300 μm downstream of the patch pipette. A constant flow rate of control and test solutions (1 ml/min) was achieved by means of a pressure control system (MPCU-3, Lorenz, Göttingen, Germany). The time of solution exchange was estimated from the changes in the liquid junction potential to be about 1 ms. If not otherwise stated, drugs were preapplied for 20 s before starting the experiments.
# Concentration-inhibition curves for the estimation of Kr (IC50 at −140 mV; Figure 2) or Kapp (Figure 6) were fitted to the Hill equation ID/IC= 1/1+([D]/IC50)^n (1) ID and IC are the current amplitudes in the presence and absence of the drug (D). [D] is the concentration of the drug. […]
# [9] = tested on: WCW-mutant; design: method as in Poulin et al., 2014; details: ref Poulin et al., 2014; cited from earlier work
# [10] = tested on: F1760C; design: method as in Poulin et al., 2014; details: anaesthetic binding site; ref Poulin et al., 2014; cited from earlier work
# [11] = biological target: T1, hNav1.5; design: expressed in transfected cells; host or cells: tsA201 (HEK-293 derivative); method as in Poulin et al., 2014; details: ref Poulin et al., 2014; cited from earlier work
# T1 sequence (Q14524 whole entry): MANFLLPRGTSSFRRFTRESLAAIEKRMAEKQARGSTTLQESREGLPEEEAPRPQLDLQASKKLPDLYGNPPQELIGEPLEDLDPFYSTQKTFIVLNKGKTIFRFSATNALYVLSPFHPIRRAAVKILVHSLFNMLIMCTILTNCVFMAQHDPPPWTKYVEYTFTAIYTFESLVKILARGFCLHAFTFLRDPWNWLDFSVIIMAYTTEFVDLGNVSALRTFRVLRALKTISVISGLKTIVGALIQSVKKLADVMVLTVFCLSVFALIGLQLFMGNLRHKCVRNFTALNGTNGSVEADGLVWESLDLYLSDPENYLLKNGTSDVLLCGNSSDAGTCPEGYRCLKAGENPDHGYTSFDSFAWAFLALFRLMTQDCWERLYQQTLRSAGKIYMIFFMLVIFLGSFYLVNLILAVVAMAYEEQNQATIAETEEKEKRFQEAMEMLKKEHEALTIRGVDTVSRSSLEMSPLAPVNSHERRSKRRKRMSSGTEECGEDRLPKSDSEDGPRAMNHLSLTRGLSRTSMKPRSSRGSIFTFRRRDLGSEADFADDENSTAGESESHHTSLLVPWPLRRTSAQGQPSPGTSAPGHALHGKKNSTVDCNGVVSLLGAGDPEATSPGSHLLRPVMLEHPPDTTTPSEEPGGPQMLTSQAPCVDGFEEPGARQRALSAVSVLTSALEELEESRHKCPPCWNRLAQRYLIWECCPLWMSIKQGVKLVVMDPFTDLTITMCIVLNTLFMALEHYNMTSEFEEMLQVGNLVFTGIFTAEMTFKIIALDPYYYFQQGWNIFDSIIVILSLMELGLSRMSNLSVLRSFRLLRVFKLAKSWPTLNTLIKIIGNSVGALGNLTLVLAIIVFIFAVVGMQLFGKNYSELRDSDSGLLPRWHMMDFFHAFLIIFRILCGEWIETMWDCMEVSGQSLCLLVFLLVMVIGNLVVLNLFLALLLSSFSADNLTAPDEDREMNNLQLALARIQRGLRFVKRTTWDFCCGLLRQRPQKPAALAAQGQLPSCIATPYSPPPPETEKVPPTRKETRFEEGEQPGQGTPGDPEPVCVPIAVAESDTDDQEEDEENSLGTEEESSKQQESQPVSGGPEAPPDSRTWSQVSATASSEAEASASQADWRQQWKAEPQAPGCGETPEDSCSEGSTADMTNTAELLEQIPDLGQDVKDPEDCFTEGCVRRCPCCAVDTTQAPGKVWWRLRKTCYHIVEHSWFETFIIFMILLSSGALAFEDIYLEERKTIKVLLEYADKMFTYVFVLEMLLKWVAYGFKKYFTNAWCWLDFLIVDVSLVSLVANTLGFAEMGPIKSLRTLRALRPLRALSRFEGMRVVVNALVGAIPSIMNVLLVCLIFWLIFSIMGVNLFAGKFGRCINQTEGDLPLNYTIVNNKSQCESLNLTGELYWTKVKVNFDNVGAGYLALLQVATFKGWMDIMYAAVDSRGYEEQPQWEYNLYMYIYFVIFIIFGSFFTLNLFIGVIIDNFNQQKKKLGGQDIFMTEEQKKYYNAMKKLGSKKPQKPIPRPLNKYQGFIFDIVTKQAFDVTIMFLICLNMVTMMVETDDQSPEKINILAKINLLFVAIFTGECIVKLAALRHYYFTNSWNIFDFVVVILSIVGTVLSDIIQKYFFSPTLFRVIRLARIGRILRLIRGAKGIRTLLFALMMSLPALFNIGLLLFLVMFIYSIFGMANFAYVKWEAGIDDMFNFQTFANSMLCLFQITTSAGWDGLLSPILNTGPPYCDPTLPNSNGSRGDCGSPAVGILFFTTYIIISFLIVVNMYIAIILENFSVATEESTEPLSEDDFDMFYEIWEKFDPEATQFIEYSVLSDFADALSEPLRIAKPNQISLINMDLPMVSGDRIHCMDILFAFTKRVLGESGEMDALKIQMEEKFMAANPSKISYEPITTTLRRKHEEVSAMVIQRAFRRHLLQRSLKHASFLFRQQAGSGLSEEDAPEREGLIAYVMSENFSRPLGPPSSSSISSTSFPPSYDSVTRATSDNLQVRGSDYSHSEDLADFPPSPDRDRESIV
smiles,measurement,setting,value
CNCC[C@@H](Oc1ccccc1C)c1ccccc1 [atomoxetine],V50_2,[1]; 3 µM,−65.5 ± 2.8 mV
same,a1,[1]; 3 µM,37.5 ± 18.7%
same,k1,[1]; 3 µM,5.2 ± 0.4 mV
same,k2,[1]; 3 µM,31.8 ± 1.9 mV
same,V50_1,[1]; 3 µM,−101.3 ± 0.3 mV
same,V50_2,[1]; 10 µM,−102.7 ± 3.9 mV
same,a1,[1]; 10 µM,71.1 ± 19.7%
same,k1,[1]; 10 µM,5.9 ± 0.2 mV
same,k2,[1]; 10 µM,34.2 ± 4.7 mV
same,V50_1,[1]; 10 µM,−107.7 ± 0.2 mV
same,relative current amplitude of the 50th pulse related to the first pulse,"[2]; 1 Hz, 1 µM atomoxetine",0.96 ± 0.01
same,relative current amplitude of the 50th pulse related to the first pulse,"[2]; 1 Hz, 3 µM atomoxetine",0.89 ± 0.05
same,relative current amplitude of the 50th pulse related to the first pulse,"[2]; 1 Hz, 10 µM atomoxetine",0.69 ± 0.09
same,relative current amplitude of the 50th pulse related to the first pulse,"[2]; 3 Hz, 1 µM atomoxetine",0.95 ± 0.02
same,relative current amplitude of the 50th pulse related to the first pulse,"[2]; 3 Hz, 3 µM atomoxetine",0.85 ± 0.07
same,relative current amplitude of the 50th pulse related to the first pulse,"[2]; 3 Hz, 10 µM atomoxetine",0.61 ± 0.09
same,relative current amplitude of the 50th pulse related to the first pulse,"[2]; 10 Hz, 3 µM atomoxetine",0.79 ± 0.03
same,relative current amplitude of the 50th pulse related to the first pulse,"[2]; 10 Hz, 10 µM atomoxetine",0.48 ± 0.07
same,"remaining current amplitude (use-dependence, pulse duration series)","[2]; activation time 1 ms, 10 µM atomoxetine",0.54 ± 0.03
same,"remaining current amplitude (use-dependence, pulse duration series)","[2]; activation time 5 ms, 10 µM atomoxetine",0.43 ± 0.03
same,"remaining current amplitude (use-dependence, pulse duration series)","[2]; activation time 20 ms, 10 µM atomoxetine",0.37 ± 0.09
same,slope of the activation curve,[3]; 3 µM atomoxetine,6.6 ± 0.6 mV
same,midpoint of the activation curve (half maximal activation),"[3]; 3 µM atomoxetine, control −52.6 ± 3.5 mV",−54.5 ± 3.9 mV
same,midpoint of the activation curve,[3]; 10 µM atomoxetine,−55.5 ± 4.1 mV
same,slope of the activation curve,[3]; 10 µM atomoxetine,6.9 ± 0.6 mV
same,net shift in positive direction of fast inactivation midpoint,"[4]; 3 µM atomoxetine, 500 ms prepulse, corrected for endogenous shift",0.3 mV
same,net drug-induced shift of half maximal fast inactivation (signed),[4]; 3 µM atomoxetine,+0.3 mV
same,negative shift of fast inactivation midpoint (net),"[4]; 10 µM atomoxetine, 500 ms prepulse, corrected for endogenous shift",0.9 mV
same,net drug-induced shift of half maximal fast inactivation (signed),[4]; 10 µM atomoxetine,−0.9 mV
same,τ 1 (%) relative amount of component,"[5]; 3 µM, inactivation 10 s",39.7 ± 2.2%
same,τ 1 (recovery time constant),"[5]; 3 µM, inactivation 10 s",5.8 ± 0.7 ms
same,τ 2 (%) relative amount of component,"[5]; 3 µM, inactivation 10 s",22.7 ± 1.0%
same,τ 2 (recovery time constant),"[5]; 3 µM, inactivation 10 s",139 ± 37.2 ms
same,τ 3 (recovery time constant),"[5]; 3 µM, inactivation 10 s","3,524 ± 377 ms"
same,τ 1 (%) relative amount of component,"[5]; 3 µM, inactivation 500 ms",90.3 ± 2.0%
same,τ 2 (recovery time constant),"[5]; 3 µM, inactivation 500 ms",191.7 ± 74.2 ms
same,τ 1 (recovery time constant),"[5]; 3 µM, inactivation 500 ms, recovery at −140 mV",3.1 ± 0.2 ms
same,τ 1 (%) relative amount of component,"[5]; 10 µM, inactivation 10 s",15.0 ± 1.6%
same,τ 1 (recovery time constant),"[5]; 10 µM, inactivation 10 s",12.4 ± 0.3 ms
same,τ 2 (%) relative amount of component,"[5]; 10 µM, inactivation 10 s",17.2 ± 2.9%
same,τ 2 (recovery time constant),"[5]; 10 µM, inactivation 10 s",417 ± 152 ms
same,τ 3 (recovery time constant),"[5]; 10 µM, inactivation 10 s","4,859 ± 332 ms"
same,τ 1 (%) relative amount of component,"[5]; 10 µM, inactivation 500 ms",86.2 ± 1.8%
same,τ 1 (recovery time constant),"[5]; 10 µM, inactivation 500 ms",4.7 ± 0.3 ms
same,τ 2 (recovery time constant),"[5]; 10 µM, inactivation 500 ms","1,259 ± 351 ms"
same,IC50,"[6]; Half-maximal effective concentrations (interaction with inactivated state), different experimental settings, abstract",2000 to 3000 nM
same,Ki,"[6]; Ki (inactivated state), single experiment of Figure 6B, Eq. 6",1850 nM
same,Ki,"[6]; affinity for the inactivated state (Ki), calculated from Kapp by Eq. 6, holding potential around half maximal inactivation, N = 5",1590 ± 450 nM
same,IC50,"[6]; apparent IC50 (IC50app), single experiment of Figure 6B, partly inactivated channels",2270 nM
same,higher affinity for the inactivated state compared to the resting state,[6]; depending on the applied protocol,about 50 fold
same,Ki,[7],2570 nM
same,remaining current at the longest inactivation time,"[7]; 3 µM atomoxetine, control 70.0 ± 14.0%",32.6 ± 9.8%
same,remaining current at the longest inactivation time,[7]; 10 µM atomoxetine,11.5 ± 8.0%
same,time constant of block development,"[7]; 10 µM atomoxetine, single exponential fit, normalized to control",4.3 ± 0.1 s
same,kon,[7]; read-out: rate constant for association (kon),18500 M⁻¹ s⁻¹
same,koff,[7]; read-out: rate constant for dissociation (koff),0.047 s⁻¹
same,IC50,"[8]; half maximal effective concentration (Kr, IC50 at −140 mV; affinity for the resting state), drug preapplied 30 s",~120000 nM and 120000 nM and 119000 nM
same,Hill coefficient,[8]; tonic block,1.47 ± 0.06
CNCCC(Oc1ccc(C(F)(F)F)cc1)c1ccccc1 (stereo not shown) [fluoxetine],ratio for the interaction with the resting state (peak current) vs. open channel (late current),[9],3 fold
same,ratio in affinity between F1760C and wildtype,[10],about 2 fold
same,ratio of affinity at holding potential −140 mV (resting state) versus −90 mV,[11],less than 10 fold
